Measured values published in article PMC11284788, “NN1213 – A Potent, Long-Acting, and Selective Analog of Human Amylin” (Journal of Medicinal Chemistry, 2024).
Where two headings read alike, the source gives them in different places. Numbered stars: 1 amine (or outer) side, 2 acyl side, 3 side chain; on linkers, the order of the positions; unused ones are H or OH. Bridge positions count the residues as written; N and C are the ends. Peptide text beside a SMILES is read from it. * marks the point of attachment. C20 diacid = O=C(O)CCCCCCCCCCCCCCCCCCC(=O)*; γGlu = O=C(O)[C@H](CCC(=O)[*:2])N[*:1]

How the values were obtained:
rat CTR = molecular target: T1, rat CTR (Rattus norvegicus, UniProt P32214); assay: cAMP FlashPlate assay, rat CTR; assay type: cell-based; details: cAMP (rat receptor assay)
T1 construct: expressed in transfected cells; host or cells: BHK tk-ts 13, transient (FuGENE 6)
T1 sequence (P32214 25-479 isoform P32214-2 limits assumed): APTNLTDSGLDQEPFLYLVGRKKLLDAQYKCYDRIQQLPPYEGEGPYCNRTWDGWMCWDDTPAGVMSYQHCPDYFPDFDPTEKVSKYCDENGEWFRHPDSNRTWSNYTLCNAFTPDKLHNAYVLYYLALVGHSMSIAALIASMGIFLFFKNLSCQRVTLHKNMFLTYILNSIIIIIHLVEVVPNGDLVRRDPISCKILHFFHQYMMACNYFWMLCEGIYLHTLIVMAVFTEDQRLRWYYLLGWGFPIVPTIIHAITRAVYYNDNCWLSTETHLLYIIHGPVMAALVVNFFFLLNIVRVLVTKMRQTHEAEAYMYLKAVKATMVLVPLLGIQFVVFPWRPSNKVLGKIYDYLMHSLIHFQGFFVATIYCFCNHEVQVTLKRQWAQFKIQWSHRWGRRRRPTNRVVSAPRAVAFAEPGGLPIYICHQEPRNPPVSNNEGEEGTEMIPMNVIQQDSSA

hCTR = molecular target: T2, hCTR (Homo sapiens, UniProt P30988); assay: cAMP-responsive element luciferase reporter assay, human CTR; assay type: cell-based; details: luciferase (human receptor assay)
T2 sequence (P30988 25-474): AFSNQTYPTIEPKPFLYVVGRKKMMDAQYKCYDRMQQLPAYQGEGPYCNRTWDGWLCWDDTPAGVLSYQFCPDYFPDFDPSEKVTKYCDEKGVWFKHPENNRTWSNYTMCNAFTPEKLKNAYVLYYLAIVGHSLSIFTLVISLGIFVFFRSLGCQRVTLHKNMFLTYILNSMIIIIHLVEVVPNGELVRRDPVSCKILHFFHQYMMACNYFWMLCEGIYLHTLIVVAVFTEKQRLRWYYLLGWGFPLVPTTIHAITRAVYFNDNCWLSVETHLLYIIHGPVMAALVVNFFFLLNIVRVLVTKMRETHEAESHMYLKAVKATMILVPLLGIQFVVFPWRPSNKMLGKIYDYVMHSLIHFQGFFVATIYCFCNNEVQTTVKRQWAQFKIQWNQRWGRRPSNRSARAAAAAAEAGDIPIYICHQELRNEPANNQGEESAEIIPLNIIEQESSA

[1] = Tables S12 and S14, read-out: rCTR pEC50 (converted)
[2] = transiently transfected BHK tk-ts 13 cells, FlashPlate, 30 min room temperature, 2% HSA, read-out: rCTR EC50
[3] = Tables S12 and S14, read-out: hCTR pEC50 (converted)
[4] = BHK cells stably expressing hCTR and CRE-luciferase, 3 h, 37 °C, 10% FBS, read-out: hCTR EC50

EC50 (rat CTR; [1])	EC50 (rat CTR; [2])	EC50 (hCTR; [3])	EC50 (hCTR; [4])	hCTR pEC50 (hCTR; Tables S12 and S14)	SMILES
37.2 nM	37.2 nM			8.26	CC[C@H](C)[C@H](NC(=O)[C@H](C)NC(=O)CNC(=O)[C@H](Cc1ccccc1)NC(=O)[C@H](CC(N)=O)NC(=O)[C@@H]1CCCN1C(=O)[C@H](CO)NC(=O)[C@H](CO)NC(=O)[C@H](Cc1c[nH]cn1)NC(=O)[C@H](CCCNC(=N)N)NC(=O)[C@H](CC(C)C)NC(=O)[C@H](Cc1ccccc1)NC(=O)[C@H](CC(N)=O)NC(=O)[C@H](C)NC(=O)[C@H](CC(C)C)NC(=O)[C@H](CCCNC(=N)N)NC(=O)[C@H](CCC(N)=O)NC(=O)[C@@H](NC(=O)[C@H](C)NC(=O)[C@@H]1CSSC[C@H](NC(=O)[C@@H](N)CCCCNC(=O)CC[C@H](NC(=O)CCCCCCCCCCCCCCCCCCC(=O)O)C(=O)O)C(=O)N[C@@H](CC(N)=O)C(=O)N[C@@H]([C@@H](C)O)C(=O)N[C@@H](C)C(=O)N[C@@H]([C@@H](C)O)C(=O)N1)[C@@H](C)O)C(=O)N1CCC[C@H]1C(=O)N[C@@H](CO)C(=O)N[C@@H](CO)C(=O)N[C@H](C(=O)N[C@@H](CC(N)=O)C(=O)N[C@H](C(=O)NCC(=O)N[C@@H](CO)C(=O)N[C@@H](CCCCN)C(=O)N[C@H](C(=O)N[C@@H](Cc1ccc(O)cc1)C(N)=O)[C@@H](C)O)C(C)C)[C@@H](C)O [Peptide 14]
17 nM	16.8 nM	2.51 nM	2.49 nM		CC[C@H](C)[C@H](NC(=O)[C@H](C)NC(=O)CNC(=O)[C@H](Cc1ccccc1)NC(=O)[C@H](CC(N)=O)NC(=O)[C@@H]1CCCN1C(=O)[C@H](CO)NC(=O)[C@H](CO)NC(=O)[C@H](Cc1c[nH]cn1)NC(=O)[C@H](CCCNC(=N)N)NC(=O)[C@H](CC(C)C)NC(=O)[C@H](Cc1ccccc1)NC(=O)[C@H](CC(N)=O)NC(=O)[C@H](C)NC(=O)[C@H](CC(C)C)NC(=O)[C@H](CCCNC(=N)N)NC(=O)[C@H](CCC(N)=O)NC(=O)[C@@H](NC(=O)[C@H](C)NC(=O)[C@@H]1CSSC[C@H](NC(=O)[C@H](CCCCN)NC(=O)CC[C@H](NC(=O)CCCCCCCCCCCCCCCCCCC(=O)O)C(=O)O)C(=O)N[C@@H](CC(N)=O)C(=O)N[C@@H]([C@@H](C)O)C(=O)N[C@@H](C)C(=O)N[C@@H]([C@@H](C)O)C(=O)N1)[C@@H](C)O)C(=O)N1CCC[C@H]1C(=O)N[C@@H](CO)C(=O)N[C@@H](CO)C(=O)N[C@H](C(=O)N[C@@H](CC(N)=O)C(=O)N[C@H](C(=O)NCC(=O)N[C@@H](Cc1c[nH]cn1)C(=O)N[C@@H](CC(N)=O)C(=O)N[C@H](C(=O)N[C@@H](Cc1ccc(O)cc1)C(N)=O)[C@@H](C)O)C(C)C)[C@@H](C)O [Peptide 17]

The remaining lines, values behind:

SMILES	EC50 (rat CTR; [1])	EC50 (rat CTR; [2])	EC50 (hCTR; [3])	EC50 (hCTR; [4])	hCTR pEC50 (hCTR; Tables S12 and S14)
CC[C@H](C)[C@H](NC(=O)[C@H](C)NC(=O)CNC(=O)[C@H](Cc1ccccc1)NC(=O)[C@H](CC(N)=O)NC(=O)[C@@H]1CCCN1C(=O)[C@H](CO)NC(=O)[C@H](CO)NC(=O)[C@H](Cc1c[nH]cn1)NC(=O)[C@H](CCCNC(=N)N)NC(=O)[C@H](CC(C)C)NC(=O)[C@H](Cc1ccccc1)NC(=O)[C@H](CC(N)=O)NC(=O)[C@H](C)NC(=O)[C@H](CC(C)C)NC(=O)[C@H](CCCNC(=N)N)NC(=O)[C@H](CCC(N)=O)NC(=O)[C@@H](NC(=O)[C@H](C)NC(=O)[C@@H]1CSSC[C@H](NC(=O)[C@H](CCCCN)NC(=O)COCCOCCNC(=O)COCCOCCNC(=O)CC[C@H](NC(=O)CCCCCCCCCCCCCCCCCCC(=O)O)C(=O)O)C(=O)N[C@@H](CC(N)=O)C(=O)N[C@@H]([C@@H](C)O)C(=O)N[C@@H](C)C(=O)N[C@@H]([C@@H](C)O)C(=O)N1)[C@@H](C)O)C(=O)N1CCC[C@H]1C(=O)N[C@@H](CO)C(=O)N[C@@H](CO)C(=O)N[C@H](C(=O)N[C@@H](CC(N)=O)C(=O)N[C@H](C(=O)NCC(=O)N[C@@H](CO)C(=O)N[C@@H](CC(N)=O)C(=O)N[C@H](C(=O)N[C@@H](Cc1ccc(O)cc1)C(N)=O)[C@@H](C)O)C(C)C)[C@@H](C)O [Peptide 10]	141 nM	142 nM			
CC[C@H](C)[C@H](NC(=O)[C@H](C)NC(=O)CNC(=O)[C@H](Cc1ccccc1)NC(=O)[C@H](CC(N)=O)NC(=O)[C@@H]1CCCN1C(=O)[C@H](CO)NC(=O)[C@H](CO)NC(=O)[C@H](Cc1c[nH]cn1)NC(=O)[C@H](CCCNC(=N)N)NC(=O)[C@H](CC(C)C)NC(=O)[C@H](Cc1ccccc1)NC(=O)[C@H](CC(N)=O)NC(=O)[C@H](C)NC(=O)[C@H](CC(C)C)NC(=O)[C@H](CCCNC(=N)N)NC(=O)[C@H](CCC(N)=O)NC(=O)[C@@H](NC(=O)[C@H](C)NC(=O)[C@@H]1CSSC[C@H](NC(=O)[C@H](CCCCN)NC(=O)CC[C@H](NC(=O)CCCCCCCCCCCCCCCCCCC(=O)O)C(=O)O)C(=O)N[C@@H](CC(N)=O)C(=O)N[C@@H]([C@@H](C)O)C(=O)N[C@@H](C)C(=O)N[C@@H]([C@@H](C)O)C(=O)N1)[C@@H](C)O)C(=O)N1CCC[C@H]1C(=O)N[C@@H](CO)C(=O)N[C@@H](CO)C(=O)N[C@H](C(=O)N1CCC[C@H]1C(=O)N[C@H](C(=O)NCC(=O)N[C@@H](CO)C(=O)N[C@@H](CCC(=O)O)C(=O)N[C@H](C(=O)N[C@@H](Cc1ccc(O)cc1)C(N)=O)[C@@H](C)O)C(C)C)[C@@H](C)O [Peptide 11] ({C20 diacid-γGlu}-KCNTATCATQRLANFLRHSSPNFGAIPSSTPVGSETY-NH2; disulfide 2-7)	16.2 nM	16.2 nM	2 nM	1.99 nM	
CC[C@H](C)[C@H](NC(=O)[C@H](C)NC(=O)CNC(=O)[C@H](Cc1ccccc1)NC(=O)[C@H](CC(N)=O)NC(=O)[C@@H]1CCCN1C(=O)[C@H](CO)NC(=O)[C@H](CO)NC(=O)[C@H](Cc1c[nH]cn1)NC(=O)[C@H](CCCNC(=N)N)NC(=O)[C@H](CC(C)C)NC(=O)[C@H](Cc1ccccc1)NC(=O)[C@H](CC(N)=O)NC(=O)[C@H](C)NC(=O)[C@H](CC(C)C)NC(=O)[C@H](CCCNC(=N)N)NC(=O)[C@H](CCC(N)=O)NC(=O)[C@@H](NC(=O)[C@H](C)NC(=O)[C@@H]1CSSC[C@H](NC(=O)[C@H](CCCCN)NC(=O)CC[C@H](NC(=O)CCCCCCCCCCCCCCCCCCC(=O)O)C(=O)O)C(=O)N[C@@H](CC(N)=O)C(=O)N[C@@H]([C@@H](C)O)C(=O)N[C@@H](C)C(=O)N[C@@H]([C@@H](C)O)C(=O)N1)[C@@H](C)O)C(=O)N1CCC[C@H]1C(=O)N[C@@H](CO)C(=O)N[C@@H](CO)C(=O)N[C@H](C(=O)N[C@@H](CC(N)=O)C(=O)N[C@H](C(=O)NCC(=O)N[C@@H](CO)C(=O)N[C@@H](CCCCN)C(=O)N[C@H](C(=O)N[C@@H](Cc1ccc(O)cc1)C(N)=O)[C@@H](C)O)C(C)C)[C@@H](C)O [Peptide 13]	30.2 nM	30.4 nM		2.61 nM	8.58
